Data set [1] can be described thus: Metabolic stability in human liver microsomes, unbound intrinsic clearance (Cl int/fu mic). The class given is in vitro ADME. The conditions noted are these: human, liver microsomes, pH 7.4, human liver microsomes 0.25 mg/mL, 0.5 μM compound, NADPH, read-out: Cl int, mic unb. (h) [l/h/kg] (unbound intrinsic clearance, human). Put shortly:
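Unbound intrinsic clearance is CLint divided by fu mic, with the unbound fraction measured by 4 h HTDialysis at 37 °C of 0.25 mg/ml microsomes spiked with 0.5 µM compound. For CLint, 0.5 µM compound was incubated with 0.25 mg/mL human microsomes and 1.0 mM NADPH (pH 7.4, 37 °C). Substrate loss over 30 min was measured by LC-MS/MS and t1/2 assumed first-order kinetics.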

In another data set the target is T1, 5-HT2C receptor (Homo sapiens, UniProt P28335).
T1 construct: host or cells: U2OS
Briefly: Human 5-HT2C functional assay (beta-arrestin2 recruitment, U2OS_HTR2C_β-Arrestin cells). It counts as cell-based. The settings on record: for EC50: beta-arrestin2 recruitment, U2OS_HTR2C_β-Arrestin cells, 1.5 h incubation, read-out: EC50 5-HT2C (potency in functional assay); for Emax: relative efficacy vs response to 10 μM 5-HT or maximal 5-HT effect (100%). Put shortly:
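EC50 and relative efficacy came from 4-parameter variable-slope fits, normalised to 10 µM 5-HT or maximal 5-HT response (100%). Luminescent β-galactosidase enzyme-complementation signal was read after 1.5 h compound exposure in U2OS_HTR2C_β-Arrestin cells held in 1% serum medium from the prior day.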

Structures can show the parent of a compound that is named as a salt.

T1 sequence (P28335 33-458): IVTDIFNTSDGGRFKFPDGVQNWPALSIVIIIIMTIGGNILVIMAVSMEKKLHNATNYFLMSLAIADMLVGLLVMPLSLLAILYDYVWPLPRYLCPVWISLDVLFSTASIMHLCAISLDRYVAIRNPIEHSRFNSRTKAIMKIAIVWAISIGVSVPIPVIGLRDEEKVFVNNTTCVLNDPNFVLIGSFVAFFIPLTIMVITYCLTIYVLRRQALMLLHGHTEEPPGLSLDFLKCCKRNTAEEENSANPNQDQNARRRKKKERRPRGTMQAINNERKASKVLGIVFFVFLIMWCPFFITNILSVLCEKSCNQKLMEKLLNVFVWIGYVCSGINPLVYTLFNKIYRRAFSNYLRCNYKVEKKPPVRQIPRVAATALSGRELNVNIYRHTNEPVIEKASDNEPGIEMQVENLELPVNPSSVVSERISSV
T1 sequence (P32121 whole entry partner): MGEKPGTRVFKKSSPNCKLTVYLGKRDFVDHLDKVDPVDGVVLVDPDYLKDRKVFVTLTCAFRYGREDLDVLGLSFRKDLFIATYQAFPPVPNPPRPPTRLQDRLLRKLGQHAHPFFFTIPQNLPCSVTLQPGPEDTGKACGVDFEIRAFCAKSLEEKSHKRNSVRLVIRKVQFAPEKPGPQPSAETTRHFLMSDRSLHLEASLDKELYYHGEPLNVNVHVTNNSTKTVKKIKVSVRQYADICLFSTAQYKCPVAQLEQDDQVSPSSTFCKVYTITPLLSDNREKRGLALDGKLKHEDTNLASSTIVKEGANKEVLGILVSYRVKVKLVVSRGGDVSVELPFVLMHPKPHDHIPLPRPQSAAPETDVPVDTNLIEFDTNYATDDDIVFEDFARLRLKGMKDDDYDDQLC

Take `COc1nc(OC[C@@H]2CCC(F)(F)C2)c(F)cc1CNC(=O)[C@H]1CCCN1C` [Example 25, (2R)—N-[[6-[[(1R)-3,3-Difluorocyclopentyl]methoxy]-5-fluoro-2-methoxy-3-pyridyl]methyl]-1-methyl-pyrrolidine-2-carboxamide; Fumaric Acid]: the CLint scaled at 0.5 μM in data set [1] was under 5 L/h/kg. Moreover, at 5-HT2C receptor, the EC50 was in the range of 20 to 200 nM and the Emax lay in the range of 50 to 70%.

Turning to `COc1nc(N2CCCC(C(F)(F)F)C2)c(F)cc1CNC(=O)[C@@H]1CCCN1` (stereo partly drawn) [Example 153, (2S)—N-[[5-Fluoro-2-methoxy-6-[3-(trifluoromethyl)-1-piperidyl]-3-pyridyl]methyl]pyrrolidine-2-carboxamide; 2,2,2-trifluoroacetic Acid], in data set [1], the CLint scaled at 0.5 μM fell in the range of 5 to 50 L/h/kg. Also, at 5-HT2C receptor, the EC50 is 20 to 200 nM and the Emax was over 70%.

As for `COc1nc(OC2CCC(F)(F)CC2)c(F)cc1CN(C)C(=O)[C@@H]1CCCN1` [Example 114, (2S)—N-[[6-(4,4-Difluorocyclohexoxy)-5-fluoro-2-methoxy-3-pyridyl]methyl]-N-methyl-pyrrolidine-2-carboxamide Hydrochloride], the CLint scaled at 0.5 μM in data set [1] lay within 5 to 50 L/h/kg. In addition, at 5-HT2C receptor, the concentration giving a half-maximal response (EC50) was under 20 nM and the Emax was over 70%.

As to `COc1nc(C(F)(F)Cc2ccccc2)c(F)cc1CN(C)C(=O)[C@@H]1CCCN1` [Example 191, (2S)—N-[[6-(1,1-Difluoro-2-phenyl-ethyl)-5-fluoro-2-methoxy-3-pyridyl]methyl]-N-methyl-pyrrolidine-2-carboxamide Hydrochloride], in data set [1], the CLint scaled at 0.5 μM fell in the range of 5 to 50 L/h/kg. In addition, at 5-HT2C receptor, the EC50 fell in the range of 200 to 1000 nM and the Emax was 30 to 50%.

For `COc1nc(C2CCC(OC)CC2)c(F)cc1CNC(=O)[C@@H]1CCCN1` (stereo partly drawn) [Example 172, (2S)—N-[[5-Fluoro-2-methoxy-6-(4-methoxycyclohexyl)-3-pyridyl]methyl]-pyrrolidine-2-carboxamide], the CLint scaled at 0.5 μM in data set [1] was under 5 L/h/kg. On 5-HT2C receptor, the EC50 lay within 20 to 200 nM and the Emax was over 70%.

Take `COc1nc(O[C@H]2CC[C@@H](C(F)(F)F)CC2)c(F)cc1CNC(=O)[C@@H]1CCCN1` [Example 20, (2S)—N-[[5-Fluoro-2-methoxy-6-[cis-4-(trifluoromethyl)cyclohexoxy]-3-pyridyl]methyl]pyrrolidine-2-carboxamide; Fumaric Acid]: the CLint scaled at 0.5 μM in data set [1] lay in the range of 5 to 50 L/h/kg. Besides, at 5-HT2C receptor, the concentration giving a half-maximal response (EC50) was under 20 nM and the Emax was over 70%.

As to `COc1nc(N2CC(C)OC(C)C2)c(F)cc1CNC(=O)[C@@H]1CCCN1` (stereo partly drawn) [Example 174, (2S)—N-[[6-(2,6-Dimethylmorpholin-4-yl)-5-fluoro-2-methoxy-3-pyridyl]methyl]-pyrrolidine-2-carboxamide; 2,2,2-trifluoroacetic Acid], in data set [1], the CLint scaled at 0.5 μM was under 5 L/h/kg. In addition, on 5-HT2C receptor, the EC50 lay within 200 to 1000 nM and the Emax lay within 30 to 50%.

In the case of `COc1nc(OCC2CC(F)(F)C2)c(F)cc1CN(C)C(=O)[C@@H]1CCCN1C` [Example 106, (2S)—N-[[6-[(3,3-Difluorocyclobutyl)methoxy]-5-fluoro-2-methoxy-3-pyridyl]-methyl]-N,1-dimethyl-pyrrolidine-2-carboxamide Hydrochloride], the CLint scaled at 0.5 μM in data set [1] was under 5 L/h/kg. Also, at 5-HT2C receptor, the EC50 was in the range of 20 to 200 nM and the Emax was in the range of 30 to 50%.

Turning to `COc1nc(NCCCc2ccccc2)c(F)cc1CNC(=O)[C@@H]1CCCN1` [Example 185, (2S)—N-[[5-Fluoro-2-methoxy-6-(3-phenylpropylamino)-3-pyridyl]methyl]-pyrrolidine-2-carboxamide; 2,2,2-trifluoroacetic acid], the CLint scaled at 0.5 μM in data set [1] fell in the range of 5 to 50 L/h/kg. Also, at 5-HT2C receptor, the EC50 lay in the range of 20 to 200 nM and the maximal effect (Emax) is over 70%.

With `COc1nc(OC2CC(F)(F)C2)c(F)cc1CNC(=O)[C@H](C)N1CCC1` [Example 101, (2S)-2-(Azetidin-1-yl)-N-[[6-(3,3-difluorocyclobutoxy)-5-fluoro-2-methoxy-3-pyridyl]methyl]propanamide Hydrochloride], the CLint scaled at 0.5 μM in data set [1] is under 5 L/h/kg. On 5-HT2C receptor, the EC50 was under 20 nM and the maximal effect (Emax) is over 70%.

Turning to `COc1nc(OC2CCC(C(C)(F)F)CC2)c(F)cc1CNC(=O)[C@@H]1CCCN1` (single isomer, unassigned; isomer 1) [Example 73], in data set [1], the CLint scaled at 0.5 μM was 5 to 50 L/h/kg. Also, on 5-HT2C receptor, the EC50 was 200 to 1000 nM and the Emax was over 70%.

For the molecule `COc1nc(OCC2CC(F)(F)C2(F)F)c(F)cc1CNC(=O)[C@@H]1CCCN1` (stereo partly drawn) [Example 47, (2S)—N-[[5-Fluoro-2-methoxy-6-[(2,2,3,3-tetrafluorocyclobutyl)methoxy]-3-pyridyl]methyl]pyrrolidine-2-carboxamide; Succinic Acid], the CLint scaled at 0.5 μM in data set [1] was under 5 L/h/kg. Moreover, at 5-HT2C receptor, the EC50 is under 20 nM and the Emax is over 70%.

On to `CCCN(Cc1ccccc1)c1nc(OC)c(CNC(=O)[C@@H]2CCCN2)cc1F` [Example 171, (2S)—N-[[6-[Benzyl(propyl)amino]-5-fluoro-2-methoxy-3-pyridyl]methyl]-pyrrolidine-2-carboxamide Hydrochloride], for which, in data set [1], the CLint scaled at 0.5 μM lay within 5 to 50 L/h/kg. Further, on 5-HT2C receptor, the EC50 lay within 200 to 1000 nM and the maximum response (Emax) is over 70%.

`COc1nc(OC2CC(C(F)(F)F)C2)c(F)cc1CNC(=O)[C@@H]1CCCN1` (stereo partly drawn) [Example 105, (2S)—N-[[5-Fluoro-2-methoxy-6-[3-(trifluoromethyl)cyclobutoxy]-3-pyridyl]-methyl]pyrrolidine-2-carboxamide Hydrochloride]: in data set [1], the CLint scaled at 0.5 μM lay within 5 to 50 L/h/kg. Besides, on 5-HT2C receptor, the EC50 is under 20 nM and the Emax was over 70%.

With `COc1nc(OC2CCC(C(F)F)CC2)c(F)cc1CNC(=O)[C@@H]1CCCN1` (stereo partly drawn) [Example 66, (2S)—N-[[6-[4-(Difluoromethyl)cyclohexoxy]-5-fluoro-2-methoxy-3-pyridyl]methyl]-pyrrolidine-2-carboxamide hydrochloride], the CLint scaled at 0.5 μM in data set [1] was in the range of 5 to 50 L/h/kg. On 5-HT2C receptor, the EC50 was under 20 nM and the Emax is over 70%.

On to `COc1nc(N(C)C2CC2)c(F)cc1CNC(=O)[C@@H]1CCCN1` [Example 147, (2S)—N-[[6-[N-Cyclopropyl-N-methyl-amino]-5-fluoro-2-methoxy-3-pyridyl]methyl]pyrrolidine-2-carboxamide; 2,2,2-trifluoroacetic Acid], for which the CLint scaled at 0.5 μM in data set [1] lay in the range of 5 to 50 L/h/kg. Also, on 5-HT2C receptor, the EC50 was in the range of 200 to 1000 nM and the Emax was in the range of 50 to 70%.

In the case of `COc1nc(C2=CCC(OC)CC2)c(F)cc1CNC(=O)[C@@H]1CCCN1` (stereo partly drawn) [Example 167, (2S)—N-[[5-Fluoro-2-methoxy-6-(4-methoxycyclohexen-1-yl)-3-pyridyl]methyl]-pyrrolidine-2-carboxamide], the CLint scaled at 0.5 μM in data set [1] was under 5 L/h/kg. For the same molecule, at 5-HT2C receptor, the EC50 was in the range of 200 to 1000 nM and the Emax was over 70%.

Regarding `COc1nc(N2CCC(CC(F)(F)F)C2)c(F)cc1CNC(=O)[C@@H]1CCCN1` (stereo partly drawn) [Example 187, (2S)—N-[[5-Fluoro-2-methoxy-6-[3-(2,2,2-trifluoroethyl)pyrrolidin-1-yl]-3-pyridyl]methyl]pyrrolidine-2-carboxamide; 2,2,2-trifluoroacetic Acid], the CLint scaled at 0.5 μM in data set [1] lay within 5 to 50 L/h/kg. Also, on 5-HT2C receptor, the EC50 was in the range of 20 to 200 nM and the maximal response (Emax) is over 70%.

As to `COc1nc(OCC2CC(F)(F)C2)c(F)cc1CNC(=O)[C@@H]1CCCN1C` [Example 92, (2S)—N-[[6-[(3,3-Difluorocyclobutyl)methoxy]-5-fluoro-2-methoxy-3-pyridyl]-methyl]-1-methyl-pyrrolidine-2-carboxamide Hydrochloride], the CLint scaled at 0.5 μM in data set [1] is under 5 L/h/kg. Also, at 5-HT2C receptor, the 50% effective concentration (EC50) was under 20 nM and the Emax is over 70%.

As for `COc1nc(OCc2ccccc2)c(F)cc1CNC(=O)[C@@H]1CCCN1` [Example 2, (2S)—N-[(6-Benzyloxy-5-fluoro-2-methoxy-3-pyridyl)methyl]pyrrolidine-2-carboxamide; 2,2,2-trifluoroacetic Acid], the CLint scaled at 0.5 μM in data set [1] is under 5 L/h/kg. Moreover, on 5-HT2C receptor, the EC50 was under 20 nM and the Emax was over 70%.

With `COc1nc(C2CCOCC2)c(F)cc1CNC(=O)[C@@H]1CCCN1` [Example 159, (2S)—N-[(5-Fluoro-2-methoxy-6-tetrahydropyran-4-yl-3-pyridyl)methyl]-pyrrolidine-2-carboxamide Hydrochloride], the CLint scaled at 0.5 μM in data set [1] is under 5 L/h/kg. Moreover, at 5-HT2C receptor, the EC50 lay within 200 to 1000 nM and the Emax is over 70%.

In the case of `COc1nc(NC2CCCCC2)c(F)cc1CNC(=O)[C@@H]1CCCN1` [Example 131, (2S)—N-[[6-(Cyclohexylamino)-5-fluoro-2-methoxy-3-pyridyl]methyl]pyrrolidine-2-carboxamide], the CLint scaled at 0.5 μM in data set [1] lay within 5 to 50 L/h/kg. Moreover, at 5-HT2C receptor, the EC50 is under 20 nM and the Emax is over 70%.

For `COc1nc(OC2CCC(F)(F)C2)c(F)cc1CNC(=O)[C@@H]1CCCN1` (stereo partly drawn) [Example 24, (2S)—N-[[6-(3,3-Difluorocyclopentoxy)-5-fluoro-2-methoxy-3-pyridyl]methyl]-pyrrolidine-2-carboxamide; Fumaric Acid], the CLint scaled at 0.5 μM in data set [1] was under 5 L/h/kg. Further, on 5-HT2C receptor, the EC50 is under 20 nM and the Emax was over 70%.

Consider `COc1nc(OC2CCC(OC)CC2)c(F)cc1CNC(=O)[C@@H]1CCCN1C` (stereo partly drawn) [Example 13, (2S)—N-[[5-Fluoro-2-methoxy-6-(4-methoxycyclohexoxy)-3-pyridyl]methyl]-1-methyl-pyrrolidine-2-carboxamide; Fumaric Acid], for which the CLint scaled at 0.5 μM in data set [1] is under 5 L/h/kg. For the same molecule, at 5-HT2C receptor, the EC50 is 20 to 200 nM and the Emax was over 70%.

The record behind these values is patent US20190062305A1, “PYRIDYL OR PYRAZINYL COMPOUNDS CARRYING A METHYL-BOUND ALPHA-AMINO ACID AMIDE GROUP” (ABBVIE DEUTSCHLAND GMBH & CO. KG, priority 2015, published 2019).
